In patent US8343923B2, “Use of notch signaling regulators for modulating osteogenesis” (Washington University, priority 2007, dated 2013):

Key:
Assay type in all cases: cell-based, mouse
[1] = tested on: bone marrow mesenchymal progenitors (CFU-Fs) in wild type BMSCs; experiment: CFU-F assay of wild type BMSCs in the presence or absence of DAPT
From the text: FIG. 8B depicts AP staining after 8 days in osteogenic medium following CFU-F assays. FIG. 8C illustrates AP quantitative assay for high-density BMSCs cultures in osteogenic medium. FIG. 8D is phase-contrast pictures of high-density BMSCs cultured in adipogenic medium. Note the lipid droplets in wild type cells. […] The arrow denotes a typical “type I” CFU-F. Cell cultures. Bone marrow harvests and high-density cultures were done as described in the art. For CFU-F assays, single-cell suspension of nucleated bone marrow cells were seeded at 3×10^6 on T25 flasks and cultured in DMEM (Invitrogen) containing 20% lot-selected FBS (Hyclone) and 1-Thioglycerol (Sigma) for 11-14 days without change of medium. For CFU-F assays, colonies with more than 50 small, round or spindle-shaped cells in direct contact with each other were scored as “type I” CFU-Fs. Clusters with more than 100 cells including large cells with multiple processes were counted as “type II” CFU-Fs. Differentiation of BMSCs was induced by either osteogenic (50 μg/ml ascorbic acid, 50 mM β-glycerol-2-phosphate) or adipogenic (0.5 μMIBMX, 60 μM indomethacine, 0.5 μM hydrocortisone) DMEM containing 10% FBS (Atlas). […] NICD was detected by Western analyses using a specific antibody (Cell Signaling). […] It was also assessed whether Notch signaling could directly control bone marrow mesenchymal progenitors and their differentiation. […]

[2] = tested on: "type II" CFU-Fs from wild type BMSCs; experiment: AP staining immediately following CFU-F assays; conditions: assayed directly for AP activity without further culture in osteogenic conditions; DAPT-treated samples
Protocol: FIG. 8G is representative of “type II” CFU-Fs stained for AP. FIG. 8H illustrates an AP quantitative assay for high-density wild type BMSCs cultures in osteogenic medium with or without DAPT. (*: p<0.05). Cell cultures. Bone marrow harvests and high-density cultures were done as described in the art. For CFU-F assays, single-cell suspension of nucleated bone marrow cells were seeded at 3×10^6 on T25 flasks and cultured in DMEM (Invitrogen) containing 20% lot-selected FBS (Hyclone) and 1-Thioglycerol (Sigma) for 11-14 days without change of medium. For CFU-F assays, colonies with more than 50 small, round or spindle-shaped cells in direct contact with each other were scored as “type I” CFU-Fs. Clusters with more than 100 cells including large cells with multiple processes were counted as “type II” CFU-Fs. Differentiation of BMSCs was induced by either osteogenic (50 μg/ml ascorbic acid, 50 mM β-glycerol-2-phosphate) or adipogenic (0.5 μMIBMX, 60 μM indomethacine, 0.5 μM hydrocortisone) DMEM containing 10% FBS (Atlas). Primary osteoblasts were isolated from long bones by incubating cleaned small bone chips to allow cells to migrate onto culture dishes. NICD was detected by Western analyses using a specific antibody (Cell Signaling). It was also assessed whether Notch signaling could directly control bone marrow mesenchymal progenitors and their differentiation. […]

[3] = tested on: wild type BMSCs; experiment: AP quantitative assay for high-density wild type BMSCs cultures in osteogenic medium; conditions: wild type BMSCs at higher density under osteogenic conditions, with versus without DAPT; p<0.05
Protocol: FIG. 8G is representative of “type II” CFU-Fs stained for AP. FIG. 8H illustrates an AP quantitative assay for high-density wild type BMSCs cultures in osteogenic medium with or without DAPT. (*: p<0.05).
Cell cultures. Bone marrow harvests and high-density cultures were done as described in the art. For CFU-F assays, single-cell suspension of nucleated bone marrow cells were seeded at 3×10^6 on T25 flasks and cultured in DMEM (Invitrogen) containing 20% lot-selected FBS (Hyclone) and 1-Thioglycerol (Sigma) for 11-14 days without change of medium. For CFU-F assays, colonies with more than 50 small, round or spindle-shaped cells in direct contact with each other were scored as “type I” CFU-Fs. Clusters with more than 100 cells including large cells with multiple processes were counted as “type II” CFU-Fs. Differentiation of BMSCs was induced by either osteogenic (50 μg/ml ascorbic acid, 50 mM β-glycerol-2-phosphate) or adipogenic (0.5 μMIBMX, 60 μM indomethacine, 0.5 μM hydrocortisone) DMEM containing 10% FBS (Atlas). Primary osteoblasts were isolated from long bones by incubating cleaned small bone chips to allow cells to migrate onto culture dishes. NICD was detected by Western analyses using a specific antibody (Cell Signaling).
It was also assessed whether Notch signaling could directly control bone marrow mesenchymal progenitors and their differentiation. […]

## C[C@H](NC(=O)Cc1cc(F)cc(F)c1)C(=O)N[C@H](C(=O)OC(C)(C)C)c1ccccc1 [DAPT, N—[N-(3,5-Difluorophenacetyl)-L-alanyl]-S-phenylglycine t-butyl ester]
[1]; 1 μM DAPT, number not altered versus untreated
  number of "type II" CFU-Fs: ~20 per 106 marrow cells
[1]; low-density culture, 1 μM DAPT (FIG. 8 legend)
  effect on "type I" CFU-Fs: completely eliminated
[2]
  AP staining of "type II" CFU-Fs: nearly all “type II” CFU-Fs from the DAPT-treated samples stained strongly positive
[3]
  AP expression: significantly increased
